Test results published in patent US20120077786A1, “METHODS AND COMPOSITIONS FOR DISEASE TREATMENT USING INHALATION” (priority 2010, published 2012).

Assays:
[1] = Aerosol performance of dry powder inhaler formulation, next generation Impactor; type: physicochemical; details: inhaler operated at 15 L/min
Procedure: Inhaled corticosteroids (ICS) mometasone furoate or fluticasone furoate are prepared with volume median particle size of less than 5 microns. Calcitriol (1, 25-Dihydroxycholecalciferol) is also prepared in crystalline form and subsequently micronized to a volume median particle size of less than 5 microns. The ICS's are incorporated at appropriately 30-50% of the commercial ICS dose when administered via a passive dry powder inhaler, due to the efficiency of the invention delivered by a dry powder inhaler (DPI) available from MicroDose Therapeutx, Inc. One preferred embodiment utilizes an ICS dosed once daily, i.e. mometasone furoate or fluticasone furoate, to coincide with a once daily dose of the vitamin D receptor agonist. This combination product is designed to reverse corticoidsteroid resistance (CR) by adding the protective anti-inflammatory effects of calcitriol with the local anti-inflamatory effects of these ICS's. The inhaler is operated at 15 L/min and for both medicaments, the aerosol performance with a fine particle fraction (% of particles exiting the inhaler that are less than 5.8 microns) is […] with at least 10% of particles in the less than 2.1 micron size range when tested with a next generation Impactor.
Calcitriol is a synthetic vitamin D analog and has been used as a pharmaceutical as well as a nutraceutical. […]

asthmatic adults = details: cited from earlier work
[2] = test system: cell line cultured from patients with corticosteroid resistant asthma; details: after addition of vitamin D; promotion of regulatory T cells; cited from earlier work
Airway smooth muscle = details: cited from earlier work
patients with COPD = details: extrafine, 1.1 microns in diameter, HFA pMDI; cited from earlier work
[3] = test system: adults with hereditary emphysema; details: cited from earlier work
[4] = test system: adult rats with preexisting elastase-induced emphysema; details: cited from earlier work
[5] = test system: mice exposed to cigarette smoke; details: cited from earlier work

C=C1/C(=C\C=C2/CCC[C@]3(C)[C@@H]([C@H](C)CCCC(C)(C)O)CC[C@@H]23)C[C@@H](O)C[C@@H]1O [calcitriol, 1, 25-Dihydroxycholecalciferol]
particles in the less than 2.1 micron size range [1]: at least 10%

vitamin D
mean increase in FEV1 for every 1 ng/mL increase in systemic vitamin D (asthmatic adults): 22.7 mL | steroid sensitivity [2]: increased steroid sensitivity | airway smooth muscle proliferation (Airway smooth muscle): slow

CCC(=O)OCC(=O)[C@@]1(OC(=O)CC)[C@@H](C)C[C@H]2[C@@H]3CCC4=CC(=O)C=C[C@]4(C)[C@@]3(Cl)[C@@H](O)C[C@@]21C [beclomethasone dipropionate]
air trapping (patients with COPD): significant reduction in air trapping

CC1=C(/C=C/C(C)=C/C=C/C(C)=C/C(=O)O)C(C)(C)CCC1 [ATRA, All Trans Retinoic Acid]
trial outcome [3]: not been successful | alveolus formation [4]: induces alveolus formation | formation of pulmonary emphysema ([5]; mice exposed to cigarette smoke): diminishes the formation of pulmonary emphysema | distance between alveolar walls ([5]; mice with emphysema produced by cigarette smoke): decreases the distance between alveolar walls
